Here are results for three molecules from patent US20160223525A1, “METHOD OF SCREENING FOR COMPOUNDS USEFUL IN THE TREATMENT OF ALZHEIMER DISEASE” (INNOVATIVE CONCEPTS IN DRUG DEVELOPMENT, priority 2013, published 2016).

Data set [1] concerns Patient-derived fibroblasts (AD patient, affected cells). The data set is described as follows: Reversal of the AD-signature (mitochondrial behaviour variables V3, V5, V7, V11, V19) by dynamic imaging of MitoTracker green-labelled live cells. The conditions noted are these: for overall rescue of the diseased (AD) phenotype, weighted by discriminant equation: 30 min incubation, healthy control=100%, AD control=0%; for overall rescue / reversal of the AD-signature, dose-response: across tested doses (0.05/0.1 to 10 μM). It is filed as cell-based, human. How it is done: Fibroblasts were labelled with MitoTracker green, a cell-permeant mitochondrial dye not sensitive to mitochondrial membrane potential, for 30 minutes. Images were recorded from an epifluorescence microscope continuously for 6 minutes. Cells were kept at 37° C. for the duration of the image capture. For each experimental condition, 3 to 15 cells were recorded per well from three independent plates, i.e. up to 6000 individual mitochondria. The maximum duration for data acquisition was 30 minutes (i.e. five cells observed during 6 min). Images were captured with a Zeiss Axioplan II microscope along three dimensions in space and in time.
Patient-derived fibroblasts were cultured in DMEM containing 15% fetal calf serum and 0.5% DMSO, a concentration known to be inert on the mitochondrial behaviour.
[…] These concentrations are consistent with circulating levels of most drugable small molecules. They are within the range of doses centered on cMax when PK/PD (Pharmacokinetic/Pharmacodynamic) studies are available.
The negative control consists in affected cells treated with the vehicle only (DMSO), the positive control consists in healthy cells treated with the vehicle only (DMSO).
Reference compounds were tested on affected cells and compared to the 2 controls.
All raw data were expressed as a percent of control values (Healthy control=100%, AD control=0%).
Data analysis of the signature variables was particularly tuned to identify bifurcation in the logic of the descriptor measured. These bifurcations and the type of adaptation put in place by the mitochondrial reticular network give us significant insights on how the cell adapts to the test element. Impact of the disease on each individual variable was analyzed through a classical linear analysis with an analysis of variance (ANOVAs). Significant differences between groups are sought through a Bonferroni post-hoc analysis.

For data set [2] the following is noted: cited from earlier work.
Setting [3] is: across tested doses (0.1, 1, 10 μM).
The mark [4] stands for this setting: across tested doses (0.1, 1, 10 μM; imatinib also 0.05 μM).

`CC(=O)[C@H]1CC[C@H]2[C@@H]3CC[C@H]4C[C@H](O)CC[C@]4(C)[C@H]3CC[C@]12C` [Allopregnanolone]: the “overall rescue of the diseased (AD) phenotype, weighted by discriminant equation” value (“overall rescue … by discriminant equation” below) in data set [1] (1 μM) is 36%. Also, in data set [1] (10 μM), the “overall rescue … by discriminant equation” value is “provided a dose-dependent rescue”. In addition, in data set [1] (1 and 10 μM), the “V5 (average cell area or dispersion descriptor of the areas of cells), % of phenotypic rescue” value is reported as “rescue was obtained”. For the same molecule, the “overall rescue / reversal of the AD-signature, dose-response” value in data set [1] is on record as “ability to reverse the AD-signature in a dose-dependent manner”. For the same molecule, in data set [1] (setting [3]), the “V7 (total area of regions containing entwined mitochondria to the total cell area), % of phenotypic rescue” value is “detrimental at the lowest tested dose and tended to improve with increasing concentration of the drug but not to a level where the disease phenotype was reversed”; the “V19 (frequency of mitochondria displaying an area between 2.6 and 3.1 μm^2), % of phenotypic rescue” value is “no effect”. Besides, in data set [1] (setting [4]), the “V3 (dispersion descriptor of the moving speeds of mitochondria), % of phenotypic rescue” value is “rescue was obtained at all tested doses”; the “V11 (cell area covered with mitochondria), % of phenotypic rescue” value is “detrimental at the lowest tested dose and tended to improve with increasing concentration of the drug but not to a level where the disease phenotype was reversed”.
For the molecule `Cc1ccc(NC(=O)c2ccc(CN3CCN(C)CC3)cc2)cc1Nc1nccc(-c2cccnc2)n1` [Imatinib], in data set [1] (0.05 μM), the “V3 (dispersion descriptor of the moving speeds of mitochondria), % of phenotypic rescue” value is “not affected”; the “V5 (average cell area or dispersion descriptor of the areas of cells), % of phenotypic rescue” value is recorded as “level comparable to that of healthy subject-derived cells”; the “V7 (total area of regions containing entwined mitochondria to the total cell area), % of phenotypic rescue” value is recorded as “level comparable to that of healthy subject-derived cells”; the “V11 (cell area covered with mitochondria), % of phenotypic rescue” value was “not affected”. In addition, in data set [1] (0.05 μM), the “V19 (frequency of mitochondria displaying an area between 2.6 and 3.1 μm^2), % of phenotypic rescue” value is reported as “level comparable to that of healthy subject-derived cells”; the “overall rescue … by discriminant equation” value is listed as 54%. In data set [1] (setting [4]), the “V3 (dispersion descriptor of the moving speeds of mitochondria), % of phenotypic rescue” value is reported as “tended to improve with increasing doses” and the “V11 (cell area covered with mitochondria), % of phenotypic rescue” value is given as “worsened”. Also, in data set [1] (doses lower than 0.05 μM (not shown)), the “overall rescue of the diseased (AD) phenotype” value is given as “no effect”.
Turning to `Oc1ccc(C=Cc2cc(O)cc(O)c2)cc1` [Resveratrol], in data set [1] (0.1 μM), the “overall rescue … by discriminant equation” value is “did not provide rescue to the AD phenotype but a detrimental effect with worsening of the diseased status”. The “overall rescue … by discriminant equation” value in data set [1] (1 μM) is recorded as “did not provide rescue to the AD phenotype but a detrimental effect with worsening of the diseased status”. For the same molecule, the “overall rescue … by discriminant equation” value in data set [1] (10 μM) worked out at 63%. For the same molecule, the “overall rescue / reversal of the AD-signature, dose-response” value in data set [1] is listed as “ability to reverse the AD-signature in a dose-dependent manner”. Moreover, in data set [1] (setting [3]), the “V5 (average cell area or dispersion descriptor of the areas of cells), % of phenotypic rescue” value is “seesaw effects”; the “V7 (total area of regions containing entwined mitochondria to the total cell area), % of phenotypic rescue” value is given as “seesaw effects”; the “V19 (frequency of mitochondria displaying an area between 2.6 and 3.1 μm^2), % of phenotypic rescue” value is given as “greatly worsened the disease-phenotype”. In data set [1] (setting [4]), the “V3 (dispersion descriptor of the moving speeds of mitochondria), % of phenotypic rescue” value is listed as “efficient in reversing the disease phenotype” and the “V11 (cell area covered with mitochondria), % of phenotypic rescue” value was “greatly worsened the disease-phenotype”. Besides, the bioavailability entry in data set [2] is recorded as “poor bioavailability”.
